# Values quoted from earlier work in US12296046B2, “Micro-emulsion containing creatine fatty-ester, method for preparing said micro-emulsion and uses thereof” (COMMISSARIAT À L'ÉNERGIE ATOMIQUE ET AUX ÉNERGIES …, priority 2018, dated 2025).
# Tested on: CrT−/y mice
# Conditions: 30 mg/kg, intracerebroventricular administration
smiles,measurement,value
"CCCCCCCCCCCCOC(=O)CN(C)C(=N)N [DCE, dodecyl creatine ester]",performance in the object recognition task,significantly improves the performance
